{"source": "patent US6566587B1", "about": "“Mutated 5-enolpyruvylshikimate-3-phosphate synthase, gene coding for said protein and transformed plants containing said gene” (priority 1995, dated 2003)", "key": {"[1]": {"system": "BMS (Black Mexican Sweet) maize cells bombarded with the construction pRPA-RD-130", "assay": "Selection of transformed maize cells on medium containing herbicide", "type": "cell-based", "settings": "2 mM in medium, 8 weeks of selection", "method": "(§1) BMS (Black Mexican Sweet) maize cells in an exponential growth phase are bombarded with the construction pRPA-RD-130 according to the principle and the protocol described by Klein et al. 1987 (Klein T. M., Wolf E. D., Wu R. and Sandford J. C. (1987): High velocity microprojectiles for delivering nucleic acids into living cells, NATURE Vol. 327 pp. 70-73).\n(§2) Two days after bomardment, the cells are transferred to the same medium containing 2 mM N-(phosphonomethyl)glycine."}, "[2]": {"system": "wild-type (WT) maize EPSPS", "assay": "In vitro EPSP synthase activity, inhibition by glyphosate (phosphate liberated)", "type": "biochemical", "settings": "glyphosate 0.12 mM; 10 minutes at 37° C., pH 5.6, 1 mM phosphoenolpyruvate", "method": "(§3) 2.a: Extraction of EPSP synthase The different EPSP synthase genes are introduced in the form of an NcoI-HindIII cassette into the plasmid vector pTro99a (Pharmacia, ref: 27-5007-01) cut with NcoI and HindIII. Recombinant E. coli DH10B bacteria overexpressing the different EPSP synthases are sonicated in 40 ml of buffer per 10 g of pelleted cells, and washed with this same buffer (200 mM Tris-HCl pH 7.8, 50 mM mercaptoethanol, 5 mM EDTA and 1 mM PMSF), to which 1 g of polyvinylpyrrolidone is added. The suspension is stirred for 15 minutes at 4° C. and then centrifuged for 20 minutes at 27,000 g and 4° C.\n(§4) Ammonium sulphate is added to the supernatant to bring the solution to 40% saturation with respect to ammonium sulphate. The mixture is centrifuged for 20 minutes at 27,000 g and 4° C. Ammonium sulphate is added to the new supernatant to bring the solution to 70% saturation with respect to ammonium sulphate. The mixture is centrifuged for 30 minutes at 27,000 g and 4° C. The EPSP synthase present in this protein pellet is taken up in 1 ml of buffer (20 mM Tris-HCl pH 7.8 and 50 mM mercaptoethanol). This solution is dialysed overnight against two liters of this same buffer at 4° C.\n(§5) The activity of each enzyme, as well as its glyphosate resistance, is measured in vitro over 10 minutes at 37° C. in the following reaction mixture: 100 mM maleic acid pH 5.6, 1 mM phosphoenolpyruvate, 3 mM shikimate 3-phosphate (prepared according to Knowles P. R. and Sprinson D. B. 1970. Methods in Enzymol 17A, 351-352 from Aerobacter aerogenes strain ATCC 25597) and 10 mM potassium fluoride. The enzyme extract is added at the last moment after the addition of glyphosate, the final concentration of which varies from 0 to 20 mM.\n(§6) The activity is measured by assaying the phosphate liberated according to the technique of Tausky H. A. and Shorr E. 1953. J. Biol. Chem. 202, 675-685."}, "[3]": {"system": "maize EPSPS mutant Ile102/Ser106 (Thr 102→Ile and Pro 106→Ser)", "assay": "In vitro EPSP synthase activity, inhibition by glyphosate (phosphate liberated)", "type": "biochemical", "method": "as §3, §4, §5, §6"}, "maize EPSPS mutant Ala": {"system": "maize EPSPS mutant Ala", "assay": "In vitro EPSP synthase activity, inhibition by glyphosate (phosphate liberated)", "type": "biochemical", "method": "as §3, §4, §5, §6"}, "[4]": {"system": "maize EPSPS mutant Ala101/Ile102 (Gly 101→Ala and Thr 102→Ile)", "assay": "In vitro EPSP synthase activity, inhibition by glyphosate (phosphate liberated)", "type": "biochemical", "method": "as §3, §4, §5, §6"}, "[5]": {"system": "maize EPSPS mutant Ser106 (Pro 106→Ser)", "assay": "In vitro EPSP synthase activity, inhibition by glyphosate (phosphate liberated)", "type": "biochemical", "settings": "glyphosate 0.12 mM; 10 minutes at 37° C., pH 5.6, 1 mM phosphoenolpyruvate", "method": "as §3, §4, §5, §6"}, "[6]": {"target": "T1, maize EPSPS mutant Ile102 (Thr 102→Ile) (Zea mays, UniProt O24566, T102I)", "T1 sequence (O24566 1-444 T102I)": "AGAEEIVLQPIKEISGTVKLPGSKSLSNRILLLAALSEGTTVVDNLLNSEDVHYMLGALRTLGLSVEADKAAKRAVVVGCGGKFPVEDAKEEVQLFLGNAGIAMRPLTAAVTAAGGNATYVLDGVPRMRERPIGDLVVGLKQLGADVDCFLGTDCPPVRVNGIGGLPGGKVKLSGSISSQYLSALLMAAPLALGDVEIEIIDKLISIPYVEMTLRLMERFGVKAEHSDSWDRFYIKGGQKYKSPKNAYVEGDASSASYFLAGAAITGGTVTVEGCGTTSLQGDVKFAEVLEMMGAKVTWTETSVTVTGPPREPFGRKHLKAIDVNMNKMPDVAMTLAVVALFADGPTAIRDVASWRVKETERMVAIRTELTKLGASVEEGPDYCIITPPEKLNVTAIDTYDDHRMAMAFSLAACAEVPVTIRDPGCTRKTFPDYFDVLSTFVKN", "assay": "In vitro EPSP synthase activity, inhibition by glyphosate (phosphate liberated)", "type": "biochemical", "settings": "10 minutes at 37° C., pH 5.6, 1 mM phosphoenolpyruvate", "method": "as §3, §4, §5, §6"}, "[7]": {"system": "BMS (Black Mexican Sweet) maize cells not bombarded", "assay": "Growth of maize cells on medium containing herbicide", "type": "cell-based", "settings": "2 mM in medium", "method": "as §1, §2"}, "[8]": {"settings": "glyphosate concentrations up to 10 mM"}}, "data": [{"smiles": "O=C(O)CNCP(=O)(O)O", "note": "[glyphosate, N-(phosphonomethyl)glycine]", "values": [{"measurement": "callus development on selection medium", "setting": "[1]", "value": "calluses which develop"}, {"measurement": "inhibition of enzyme activity", "setting": "[2]", "value": 85, "unit": "%"}, {"measurement": "inhibition of enzyme activity", "setting": "[3]; glyphosate 0.12 mM", "value": "little or no inhibition"}, {"measurement": "inhibition of enzyme activity", "setting": "[3]; glyphosate 1.2 mM", "value": "still not being inhibited"}, {"measurement": "inhibition of enzyme activity", "setting": "[3]; glyphosate 20 mM", "value": "not reduced"}, {"measurement": "inhibition of enzyme activity", "setting": "maize EPSPS mutant Ala; glyphosate 1.2 mM", "value": "still not being inhibited"}, {"measurement": "inhibition of enzyme activity", "setting": "maize EPSPS mutant Ala; [8]", "value": "not inhibited"}, {"measurement": "inhibition of enzyme activity", "setting": "[4]; glyphosate 0.12 mM", "value": "little or no inhibition"}, {"measurement": "inhibition of enzyme activity", "setting": "[4]; glyphosate 1.2 mM", "value": "still not being inhibited"}, {"measurement": "inhibition of enzyme activity", "setting": "[4]; [8]", "value": "not inhibited"}, {"measurement": "inhibition of enzyme activity", "setting": "[5]", "value": 50, "unit": "%"}, {"measurement": "IC50", "setting": "[6]; read-out: glyphosate concentration producing a 50% inhibition", "value": 1.2, "unit": "mM"}, {"measurement": "inhibition of enzyme activity", "setting": "[6]; glyphosate 0.12 mM", "value": "little or no inhibition"}, {"measurement": "cell growth on medium containing herbicide", "setting": "[7]", "value": "blocked by the herbicide and do not develop"}]}]}
